Results from ChEMBL document CHEMBL1135252, “Design and synthesis of antiangiogenic/heparin-binding arginine dendrimer mimicking the surface of endostatin” (Bioorg Med Chem Lett, 2002).

Columns and labels:
[1] = species on record: Gallus gallus; test: Antiangiogenic activity in chicken embryo chorioallantoic membrane assay, at 100 ug/CAM was determined; assay type: functional, tissue-based
[2] = species on record: Gallus gallus; test: Antiangiogenic activity in chicken embryo chorioallantoic membrane assay, at 10 ug/CAM was determined; assay type: functional, tissue-based
[3] = species on record: Rattus norvegicus; test: Salt concentration required for release from the heparin-agarose column was evaluated to determine the heparin- binding activity to inhibit the growth of rat lung endothelial(RLE) cells

NaCl concentration [3]: 1.2 M
SMILES: N=C(N)NCCCC(N)C(=O)NC(CCCNC(=N)N)C(=O)NCCCCC(NC(=O)C(CCCNC(=N)N)NC(=O)C(N)CCCNC(=N)N)C(=O)NCCCCC(NC(=O)C(CCCCNC(=O)C(CCCNC(=N)N)NC(=O)C(N)CCCNC(=N)N)NC(=O)C(CCCNC(=N)N)NC(=O)C(N)CCCNC(=N)N)C(=O)NCCCC(NC(=O)NCC(=O)O)NC(=O)C(CCCCNC(=O)C(CCCCNC(=O)C(CCCNC(=N)N)NC(=O)C(N)CCCNC(=N)N)NC(=O)C(CCCNC(=N)N)NC(=O)C(N)CCCNC(=N)N)NC(=O)C(CCCCNC(=O)C(CCCNC(=N)N)NC(=O)C(N)CCCNC(=N)N)NC(=O)C(CCCNC(=N)N)NC(=O)C(N)CCCNC(=N)N (stereo not drawn)
inhibition [1]: 70%
inhibition [2]: 45.4%
